Usually Ki stands for a measure of affinity in units of concentration, obtained from inhibition or displacement. The term IC50 denotes the concentration that inhibits the measured activity by half. A high value points to weaker potency. Broadly, the Km is the substrate concentration at which the rate is half of its maximum.

The values that follow come from US9296708B2, “Chimeric small molecules for the recruitment of antibodies to cancer cells” (YALE UNIVERSITY, priority 2008, dated 2016).

Residues, ends and D or L forms follow the SMILES beside them.

What all share (assay type): biochemical
For experiment [1], the target named is T1, rhPSMA (Homo sapiens (Human), UniProt Q04609). Put plainly: PSMA inhibition assay (NAAG hydrolysis, Amplex Red). The conditions noted are these: for IC50: mean of triplicate experiments ± SD.
The target of experiment [2] is T1, rhPSMA. Put plainly: Measurement of PSMA Km. Particulars: NAAG substrate, 40 μM-312.5 nM, room temperature 15 min. The method, then:
A 10 mM solution of N-acetyl-aspartylglutamate (NAAG) in 40 mM NaOH, and was then diluted in Reaction Buffer (100 mM Tris-HCl, pH 7.5) to a final NAAG concentration of 40 µM. The solution was added to a 384 well plate (20 µL per well). […] Reaction Buffer (20 µL) was added to the Km control series. The plate was incubated at room temperature for 15 min, and then heated to 95° C. for 3 minutes. The plate was allowed to cool to room temperature, and glutamic acid levels were measured using a commercially available Amplex®—Red Glutamic Acid/Glutamate Oxidase Assay Kit (Invitrogen). Fluorescence intensities were measured using a Synergy 2 multiwell plate reader (Biotek), fitted with excitation and emission filters of 545 nm and 590 nm, respectively. […] This value is consistent with that reported in the literature^7 and was employed in subsequent Ki calculations (see below).

For experiment [3], the target named is human recombinant PSMA (rhPSMA) (Homo sapiens (Human), UniProt Q04609). Put plainly: NAALADase inhibition experiments (Amplex Red glutamate release). The conditions noted are these: human recombinant PSMA (R&D Research); average of three runs ± standard deviation. The method, then: A 10 mM stock solution of N-acetyl-aspartyl-glutamate (NAAG) in 40 mM NaOH was diluted to 40 μM in Tris buffer (0.1M Tris-HCl, pH=7.5), and was added to 384 well plate (25 μl per well). […] For IC50 measurements, solutions of recruiting molecule 3 in water (2 μL per well, dilution series) were added to wells. For all other wells, 2 μL of water was added. To initiate reactions, rhPSMA (R&D research) diluted in Tris buffer (20 pg/mL), was added to each well (25 μl per well). For negative controls, Tris buffer was added (25 μl per well). The plate was covered and incubated for 15 minutes, at which time the protein was deactivated by heating the plate to 95° C. for 3 minutes. After plate was allowed to cool, glutamic acid release was visualized using an Amplex®-Red glutamic acid/glutamate oxidase assay kit (Invitrogen). Km and IC50 values were calculated using graphpad prism software, and Ki was calculated from these values using the Cheng-Prusoff Equation. This process was run in triplicate, and is reported in the manuscript as the average of three runs±standard deviation.

[4] abbreviates: Table 1, from IC50 and Km via Cheng-Prusoff equation.
[5] abbreviates: Table 2, Cheng-Prusoff equation, Km 925 nM.

T1 sequence (Q04609 44-750): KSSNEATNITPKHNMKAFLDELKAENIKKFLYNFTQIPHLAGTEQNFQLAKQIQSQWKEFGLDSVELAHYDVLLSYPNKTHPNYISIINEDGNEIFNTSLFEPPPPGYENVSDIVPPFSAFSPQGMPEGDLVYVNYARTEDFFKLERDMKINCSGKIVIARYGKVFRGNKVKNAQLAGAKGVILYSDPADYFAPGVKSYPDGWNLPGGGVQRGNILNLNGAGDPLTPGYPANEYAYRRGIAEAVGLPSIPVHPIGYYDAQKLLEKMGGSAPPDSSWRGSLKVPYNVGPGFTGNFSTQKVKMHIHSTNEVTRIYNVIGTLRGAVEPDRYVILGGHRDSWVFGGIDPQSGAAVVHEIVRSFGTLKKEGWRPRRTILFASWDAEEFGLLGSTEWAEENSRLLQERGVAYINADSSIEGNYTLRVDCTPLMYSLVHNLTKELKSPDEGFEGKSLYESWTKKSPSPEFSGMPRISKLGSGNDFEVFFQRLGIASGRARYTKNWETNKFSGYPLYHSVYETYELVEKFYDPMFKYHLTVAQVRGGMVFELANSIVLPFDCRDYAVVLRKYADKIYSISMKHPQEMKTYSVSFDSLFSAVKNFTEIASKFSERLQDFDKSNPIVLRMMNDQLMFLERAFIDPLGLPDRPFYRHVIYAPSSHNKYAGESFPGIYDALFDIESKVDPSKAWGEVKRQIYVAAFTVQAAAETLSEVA
human recombinant PSMA (rhPSMA), sequence (Q04609 44-750 limits assumed): as the sequence (Q04609 44-750) above

Turning to `O=C(O)CC[C@H](NC(=O)N[C@@H](CCCCn1cc(CNc2ccc([N+](=O)[O-])cc2[N+](=O)[O-])nn1)C(=O)O)C(=O)O` [1, ARM-P0, (S)-2-(3-((S)-1-carboxy-5-(4-((2,4-dinitrophenylamino)methyl)-1H-1,2,3-triazol-1-yl)pentyl)ureido)pentanedioic acid], the Ki at rhPSMA [1] (setting [4]) turned out to be 0.078 ± 0.018 nM. Moreover, the midpoint of inhibition on rhPSMA [1] (Table 1, 20 μM NAAG), the IC50, lay at 1.76 ± 0.41 nM.
On the same counts, the results for `O=C(O)CC[C@H](NC(=O)N[C@@H](CCCCn1cc(COCCNc2ccc([N+](=O)[O-])cc2[N+](=O)[O-])nn1)C(=O)O)C(=O)O` [2, ARM-P1, (S)-2-(3-((S)-1-carboxy-5-(4-((2-(2,4-dinitrophenylamino)ethoxy)methyl)-1H-1,2,3-triazol-1-yl)pentyl)ureido)pentanedioic acid] are 0.047 ± 0.005 nM and 1.05 ± 0.11 nM.
Turning to `O=C(O)CC[C@H](NC(=O)N[C@@H](CCCCn1cc(COCCOCCOCCOCCOCCOCCNc2ccc([N+](=O)[O-])cc2[N+](=O)[O-])nn1)C(=O)O)C(=O)O` [5, ARM-P6], the Ki on rhPSMA [1] (setting [4]) was 0.101 ± 0.027 nM. The same molecule displayed an IC50 at rhPSMA [1] (Table 1, 20 μM NAAG) of 2.29 ± 0.6 nM.
In the same order, the values of `O=C(O)CC[C@H](NC(=O)N[C@@H](CCCCn1cc(COCCOCCOCCOCCOCCOCCOCCOCCOCCOCCOCCOCCNc2ccc([N+](=O)[O-])cc2[N+](=O)[O-])nn1)C(=O)O)C(=O)O` [7, ARM-P12] are 1.65 ± 0.72 nM and 37.3 ± 16.2 nM.
`COCc1cn(CCCC[C@H](NC(=O)N[C@@H](CCC(=O)O)C(=O)O)C(=O)O)nn1` [8, MeO-P0, (S)-2-(3-((S)-1-carboxy-5-(4-(methoxymethyl)-1H-1,2,3-triazol-1-yl)pentyl)ureido)pentanedioic acid] gave a Ki on rhPSMA [1] (setting [4]) of 1.35 ± 0.54 nM. At rhPSMA [1] (Table 1, 20 μM NAAG), this molecule displayed an IC50 of 30.5 ± 12.1 nM.
`COCCOCCOCc1cn(CCCC[C@H](NC(=O)N[C@@H](CCC(=O)O)C(=O)O)C(=O)O)nn1` [9, MeO-P2, (S)-2-(3-((S)-1-carboxy-5-(4-((2-(2-methoxyethoxy)ethoxy)methyl)-1H-1,2,3-triazol-1-yl)pentyl)ureido)pentanedioic acid]: affinity at rhPSMA [1] (setting [4]) was put at a Ki of 1.81 ± 0.42 nM. For the same molecule, on rhPSMA [1] (Table 1, 20 μM NAAG), half-maximal inhibition (IC50) required 40.8 ± 9.4 nM.
Turning to `COCCOCCOCCOCCOCCOCCOCCOCCOCc1cn(CCCC[C@H](NC(=O)N[C@@H](CCC(=O)O)C(=O)O)C(=O)O)nn1` [11, MeO-P8, (S)-2-(3-((S)-5-(4-2,5,8,11,14,17,20,23,26-nonaoxaheptacosyl-1H-1,2,3-triazol-1-yl)-1-carboxypentyl)ureido)pentanedioic acid], the Ki at rhPSMA [1] (setting [4]) was 5.79 ± 2.54 nM. Also, the IC50 on rhPSMA [1] (Table 1, 20 μM NAAG) is 131 ± 57.6 nM.
On the same counts, the results for `COCCOCCOCCOCCOCCOCCOCCOCCOCCOCCOCCOCCOCc1cn(CCCC[C@H](NC(=O)N[C@@H](CCC(=O)O)C(=O)O)C(=O)O)nn1` [12, MeO-P12, (S)-2-(3-((S)-5-(4-2,5,8,11,14,17,20,23,26,29,32,35,38-tridecaoxanonatriacontyl-1H-1,2,3-triazol-1-yl)-1-carboxypentyl)ureido)pentanedioic acid] are 7.3 ± 2.6 nM and 165 ± 58.9 nM.
Regarding `O=C(O)CC[C@H](NC(=O)N[C@@H](CCCCn1cc(COCCOCCNc2ccccc2[N+](=O)[O-])nn1)C(=O)O)C(=O)O` [Compound 13, (S)-2-(3-((S)-1-carboxy-5-(4-((2-(2-(2-nitrophenylamino)ethoxy)ethoxy)methyl)-1H-1,2,3-triazol-1-yl)pentyl)ureido)pentanedioic acid], the Ki at rhPSMA [1] (setting [5]) came to 0.078 ± 0.007 nM; at rhPSMA [1] (Table 2 analogues) it was 0.06 nM. Inhibition on rhPSMA [1] (Table 2) was half-maximal at 1.78 ± 0.15 nM (IC50).
In the same order, the values of `O=C(O)CC[C@H](NC(=O)N[C@@H](CCCCn1cc(COCCOCCNc2ccc([N+](=O)[O-])cc2)nn1)C(=O)O)C(=O)O` [Compound 14, (S)-2-(3((S)-1-carboxy-5-(4-((2-(2-(4-nitrophenylamino)ethoxy)ethoxy)methyl)-1H-1,2,3-triazol-1-yl)pentyl)ureido)pentanedioic acid] are 0.06 ± 0.008 nM, 0.078 nM and 1.36 ± 0.18 nM.
With `O=C(O)CC[C@H](NC(=O)N[C@@H](CCCCn1cc(COCCOCCNc2ccccc2)nn1)C(=O)O)C(=O)O` [Compound 15, (S)-2-(3-((S)-1-carboxy-5-(4-((2-(2-(phenylamino)ethoxy)ethoxy)methyl)-1H-1,2,3-triazol-1-yl)pentyl)ureido)pentanedioic acid], the Ki at rhPSMA [1] (setting [5]) was determined as 0.73 ± 0.28 nM; at rhPSMA [1] (Table 2 analogues) it was 0.73 nM. For the same molecule, the IC50 on rhPSMA [1] (Table 2) was found to be 16.6 ± 6.3 nM.
Take `COc1ccc(NCCOCCOCc2cn(CCCC[C@H](NC(=O)N[C@@H](CCC(=O)O)C(=O)O)C(=O)O)nn2)cc1` [Compound 16, (S)-2-(3-((S)-1-carboxy-5-(4-((2-(2-(4-methoxyphenylamino)ethoxy)ethoxy)methyl)-1H-1,2,3-triazol-1-yl)pentyl)ureido)pentanedioic acid]: the Ki at rhPSMA [1] (setting [5]) and on rhPSMA [1] (Table 2 analogues) was 0.97 nM each time. The molecule further returned an IC50 against rhPSMA [1] (Table 2) of 21.9 ± 9.9 nM.
`O=C(O)CC[C@H](NC(=O)N[C@@H](CCCCn1cc(COCCOCCNC2CCCCC2)nn1)C(=O)O)C(=O)O` [Compound 17, (S)-2-(3-((S)-1-carboxy-5-(4-((2-(2-(cyclohexylamino)ethoxy)ethoxy)methyl)-1H-1,2,3-triazol-1-yl)pentyl)ureido)pentanedioic acid] registered a Ki at rhPSMA [1] (setting [5]) of 15.1 nM. The IC50 on rhPSMA [1] (Table 2) was 342 ± 170 nM.
For the molecule `CC(=O)N[C@@H](CC(=O)O)C(=O)N[C@@H](CCC(=O)O)C(=O)O` [NAAG, N-acetyl-aspartylglutamate] (Ac-Asp-Glu-OH), the Km on rhPSMA [2] is 0.925 µM.
For the molecule `CC(C)(C)OC(=O)CC[C@H](NC(=O)N[C@@H](CCCCn1cc(COCCOCCOCCOCCNc2ccc([N+](=O)[O-])cc2[N+](=O)[O-])nn1)C(=O)OC(C)(C)C)C(=O)OC(C)(C)C` [PC-ARM (3), (S)-di-tert-butyl 2-(3-((S)-1-tert-butoxy-6-(4-(13-(2,4-dinitrophenylamino)-2,5,8,11-tetraoxamidecyl)-1H-1,2,3-triazol-1-yl)-1-oxohexan-2-yl)ureido)pentanedioate], in experiment [3], the Ki was determined as 0.9 ± 0.3 nM.
